According to PubChem BioAssay (NCI):
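These data come from cells grown in 96-well plates and exposed to compound for 48 hours at five concentrations. GI50 marks 50% less growth. TGI marks complete inhibition of growth.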

What was measured:
Assay in all cases: NCI-60 cell line screen, 48 h
U251 CNS = test system: U251 CNS
RXF 393 renal = test system: RXF 393 renal
NCI-H460 lung = test system: NCI-H460 lung
HOP-62 NSCLC = test system: HOP-62 NSCLC
SF-268 CNS = test system: SF-268 CNS
HCT-15 colon = test system: HCT-15 colon
MALME-3M melanoma = test system: MALME-3M melanoma
OVCAR-5 ovarian = test system: OVCAR-5 ovarian
A498 renal = test system: A498 renal
A549 NSCLC = test system: A549 NSCLC
SK-MEL-28 melanoma = test system: SK-MEL-28 melanoma
OVCAR-4 ovarian = test system: OVCAR-4 ovarian
ACHN renal = test system: ACHN renal
OVCAR-8 ovarian = test system: OVCAR-8 ovarian
EKVX NSCLC = test system: EKVX NSCLC
NCI-H522 lung = test system: NCI-H522 lung
CAKI-1 renal = test system: CAKI-1 renal
SF-539 CNS = test system: SF-539 CNS
SK-MEL-2 melanoma = test system: SK-MEL-2 melanoma
NCI-H23 lung = test system: NCI-H23 lung
UACC-62 melanoma = test system: UACC-62 melanoma
PC-3 prostate = test system: PC-3 prostate
KM12 colon = test system: KM12 colon
HCC-2998 colon = test system: HCC-2998 colon
MOLT-4 leukemia = test system: MOLT-4 leukemia
K-562 leukemia = test system: K-562 leukemia
TK-10 renal = test system: TK-10 renal
MCF7 breast = test system: MCF7 breast
OVCAR-3 ovarian = test system: OVCAR-3 ovarian
UACC-257 melanoma = test system: UACC-257 melanoma
786-0 renal = test system: 786-0 renal
NCI-H226 lung = test system: NCI-H226 lung
SF-295 CNS = test system: SF-295 CNS
HS 578T breast = test system: HS 578T breast
HOP-92 NSCLC = test system: HOP-92 NSCLC
MDA-MB-231 breast = test system: MDA-MB-231 breast
NCI/ADR-RES ovarian = test system: NCI/ADR-RES ovarian
RPMI-8226 leukemia = test system: RPMI-8226 leukemia
SNB-19 CNS = test system: SNB-19 CNS
COLO 205 colon = test system: COLO 205 colon
UO-31 renal = test system: UO-31 renal
DU-145 prostate = test system: DU-145 prostate
BT-549 breast = test system: BT-549 breast
M14 melanoma = test system: M14 melanoma
SNB-75 CNS = test system: SNB-75 CNS
T-47D breast = test system: T-47D breast
IGROV1 ovarian = test system: IGROV1 ovarian
HT29 colon = test system: HT29 colon
HCT-116 colon = test system: HCT-116 colon
SK-MEL-5 melanoma = test system: SK-MEL-5 melanoma
CCRF-CEM leukemia = test system: CCRF-CEM leukemia
SK-OV-3 ovarian = test system: SK-OV-3 ovarian
SN12C renal = test system: SN12C renal
MDA-MB-435 = test system: MDA-MB-435
HL-60(TB) leukemia = test system: HL-60(TB) leukemia
SW-620 colon = test system: SW-620 colon
LOX IMVI melanoma = test system: LOX IMVI melanoma

**Q.** For `Fc1ccc(-c2cc(-c3cn[nH]c3-c3ccccn3)ccn2)cc1`, which GI50 (U251 CNS) is on record?
**A.** > 25 µM

**Q.** And the TGI (U251 CNS)?
**A.** > 25 µM

**Q.** And the GI50 (RXF 393 renal)?
**A.** > 25 µM

**Q.** What about the TGI (RXF 393 renal) of the same molecule?
**A.** > 25 µM

**Q.** What about the GI50 (NCI-H460 lung) of the same molecule?
**A.** 24.7 µM

**Q.** What about the TGI (NCI-H460 lung) of the same molecule?
**A.** > 25 µM

**Q.** What about the GI50 (HOP-62 NSCLC) of the same molecule?
**A.** > 25 µM

**Q.** And the TGI (HOP-62 NSCLC)?
**A.** > 25 µM

**Q.** What about the GI50 (SF-268 CNS) of the same molecule?
**A.** > 25 µM

**Q.** And the TGI (SF-268 CNS)?
**A.** > 25 µM

**Q.** And the GI50 (HCT-15 colon)?
**A.** > 25 µM

**Q.** And the TGI (HCT-15 colon)?
**A.** > 25 µM

**Q.** What about the GI50 (MALME-3M melanoma) of the same molecule?
**A.** > 25 µM

**Q.** What about the TGI (MALME-3M melanoma) of the same molecule?
**A.** > 25 µM

**Q.** And the GI50 (OVCAR-5 ovarian)?
**A.** > 25 µM

**Q.** What about the TGI (OVCAR-5 ovarian) of the same molecule?
**A.** > 25 µM

**Q.** And the GI50 (A498 renal)?
**A.** 24.8 µM

**Q.** What about the TGI (A498 renal) of the same molecule?
**A.** > 25 µM

**Q.** And the GI50 (A549 NSCLC)?
**A.** > 25 µM

**Q.** And the TGI (A549 NSCLC)?
**A.** > 25 µM

**Q.** What about the GI50 (SK-MEL-28 melanoma) of the same molecule?
**A.** > 25 µM

**Q.** What about the TGI (SK-MEL-28 melanoma) of the same molecule?
**A.** > 25 µM

**Q.** What about the GI50 (OVCAR-4 ovarian) of the same molecule?
**A.** > 25 µM

**Q.** And the TGI (OVCAR-4 ovarian)?
**A.** > 25 µM

**Q.** What about the GI50 (ACHN renal) of the same molecule?
**A.** > 25 µM

**Q.** What about the TGI (ACHN renal) of the same molecule?
**A.** > 25 µM

**Q.** And the GI50 (OVCAR-8 ovarian)?
**A.** > 25 µM

**Q.** And the TGI (OVCAR-8 ovarian)?
**A.** > 25 µM

**Q.** And the GI50 (EKVX NSCLC)?
**A.** > 25 µM

**Q.** What about the TGI (EKVX NSCLC) of the same molecule?
**A.** > 25 µM

**Q.** And the GI50 (NCI-H522 lung)?
**A.** > 25 µM

**Q.** What about the TGI (NCI-H522 lung) of the same molecule?
**A.** > 25 µM

**Q.** What about the GI50 (CAKI-1 renal) of the same molecule?
**A.** > 25 µM

**Q.** And the TGI (CAKI-1 renal)?
**A.** > 25 µM

**Q.** And the GI50 (SF-539 CNS)?
**A.** > 25 µM

**Q.** And the TGI (SF-539 CNS)?
**A.** > 25 µM

**Q.** What about the GI50 (SK-MEL-2 melanoma) of the same molecule?
**A.** > 25 µM

**Q.** And the TGI (SK-MEL-2 melanoma)?
**A.** > 25 µM

**Q.** What about the GI50 (NCI-H23 lung) of the same molecule?
**A.** > 12.8 µM

**Q.** And the TGI (NCI-H23 lung)?
**A.** > 25 µM

**Q.** What about the GI50 (UACC-62 melanoma) of the same molecule?
**A.** > 25 µM

**Q.** What about the TGI (UACC-62 melanoma) of the same molecule?
**A.** > 25 µM

**Q.** What about the GI50 (PC-3 prostate) of the same molecule?
**A.** > 25 µM

**Q.** What about the TGI (PC-3 prostate) of the same molecule?
**A.** > 25 µM

**Q.** What about the GI50 (KM12 colon) of the same molecule?
**A.** > 25 µM

**Q.** And the TGI (KM12 colon)?
**A.** > 25 µM

**Q.** And the GI50 (HCC-2998 colon)?
**A.** > 25 µM

**Q.** What about the TGI (HCC-2998 colon) of the same molecule?
**A.** > 25 µM

**Q.** What about the GI50 (MOLT-4 leukemia) of the same molecule?
**A.** > 25 µM

**Q.** And the TGI (MOLT-4 leukemia)?
**A.** > 25 µM

**Q.** And the GI50 (K-562 leukemia)?
**A.** > 25 µM

**Q.** What about the TGI (K-562 leukemia) of the same molecule?
**A.** > 25 µM

**Q.** What about the GI50 (TK-10 renal) of the same molecule?
**A.** > 25 µM

**Q.** And the TGI (TK-10 renal)?
**A.** > 25 µM

**Q.** What about the GI50 (MCF7 breast) of the same molecule?
**A.** > 25 µM

**Q.** And the TGI (MCF7 breast)?
**A.** > 25 µM

**Q.** What about the GI50 (OVCAR-3 ovarian) of the same molecule?
**A.** > 25 µM

**Q.** And the TGI (OVCAR-3 ovarian)?
**A.** > 25 µM

**Q.** What about the GI50 (UACC-257 melanoma) of the same molecule?
**A.** > 25 µM

**Q.** And the TGI (UACC-257 melanoma)?
**A.** > 25 µM

**Q.** What about the GI50 (786-0 renal) of the same molecule?
**A.** > 22.6 µM

**Q.** What about the TGI (786-0 renal) of the same molecule?
**A.** > 25 µM

**Q.** And the GI50 (NCI-H226 lung)?
**A.** > 25 µM

**Q.** And the TGI (NCI-H226 lung)?
**A.** > 25 µM

**Q.** And the GI50 (SF-295 CNS)?
**A.** > 25 µM

**Q.** And the TGI (SF-295 CNS)?
**A.** > 25 µM

**Q.** And the GI50 (HS 578T breast)?
**A.** > 25 µM

**Q.** And the TGI (HS 578T breast)?
**A.** > 25 µM

**Q.** What about the GI50 (HOP-92 NSCLC) of the same molecule?
**A.** 24.6 µM

**Q.** What about the TGI (HOP-92 NSCLC) of the same molecule?
**A.** > 25 µM

**Q.** What about the GI50 (MDA-MB-231 breast) of the same molecule?
**A.** > 25 µM

**Q.** And the TGI (MDA-MB-231 breast)?
**A.** > 25 µM

**Q.** What about the GI50 (NCI/ADR-RES ovarian) of the same molecule?
**A.** > 19.5 µM

**Q.** And the TGI (NCI/ADR-RES ovarian)?
**A.** > 25 µM

**Q.** And the GI50 (RPMI-8226 leukemia)?
**A.** > 25 µM

**Q.** And the TGI (RPMI-8226 leukemia)?
**A.** > 25 µM

**Q.** What about the GI50 (SNB-19 CNS) of the same molecule?
**A.** > 25 µM

**Q.** What about the TGI (SNB-19 CNS) of the same molecule?
**A.** > 25 µM

**Q.** What about the GI50 (COLO 205 colon) of the same molecule?
**A.** > 25 µM

**Q.** What about the TGI (COLO 205 colon) of the same molecule?
**A.** > 25 µM

**Q.** What about the GI50 (UO-31 renal) of the same molecule?
**A.** > 25 µM

**Q.** And the TGI (UO-31 renal)?
**A.** > 25 µM

**Q.** And the GI50 (DU-145 prostate)?
**A.** > 25 µM

**Q.** What about the TGI (DU-145 prostate) of the same molecule?
**A.** > 25 µM

**Q.** What about the GI50 (BT-549 breast) of the same molecule?
**A.** > 25 µM

**Q.** What about the TGI (BT-549 breast) of the same molecule?
**A.** > 25 µM

**Q.** What about the GI50 (M14 melanoma) of the same molecule?
**A.** > 17 µM

**Q.** And the TGI (M14 melanoma)?
**A.** > 25 µM

**Q.** What about the GI50 (SNB-75 CNS) of the same molecule?
**A.** > 25 µM

**Q.** What about the TGI (SNB-75 CNS) of the same molecule?
**A.** > 25 µM

**Q.** What about the GI50 (T-47D breast) of the same molecule?
**A.** > 25 µM

**Q.** What about the TGI (T-47D breast) of the same molecule?
**A.** > 25 µM

**Q.** And the GI50 (IGROV1 ovarian)?
**A.** > 25 µM

**Q.** What about the TGI (IGROV1 ovarian) of the same molecule?
**A.** > 25 µM

**Q.** What about the GI50 (HT29 colon) of the same molecule?
**A.** > 25 µM

**Q.** And the TGI (HT29 colon)?
**A.** > 25 µM

**Q.** What about the GI50 (HCT-116 colon) of the same molecule?
**A.** > 17.3 µM

**Q.** What about the TGI (HCT-116 colon) of the same molecule?
**A.** > 25 µM

**Q.** What about the GI50 (SK-MEL-5 melanoma) of the same molecule?
**A.** > 25 µM

**Q.** What about the TGI (SK-MEL-5 melanoma) of the same molecule?
**A.** > 25 µM

**Q.** And the GI50 (CCRF-CEM leukemia)?
**A.** > 25 µM

**Q.** What about the TGI (CCRF-CEM leukemia) of the same molecule?
**A.** > 25 µM

**Q.** What about the GI50 (SK-OV-3 ovarian) of the same molecule?
**A.** > 25 µM

**Q.** What about the TGI (SK-OV-3 ovarian) of the same molecule?
**A.** > 25 µM

**Q.** And the GI50 (SN12C renal)?
**A.** > 25 µM

**Q.** And the TGI (SN12C renal)?
**A.** > 25 µM

**Q.** And the GI50 (MDA-MB-435)?
**A.** > 25 µM

**Q.** And the TGI (MDA-MB-435)?
**A.** > 25 µM

**Q.** What about the GI50 (HL-60(TB) leukemia) of the same molecule?
**A.** > 25 µM

**Q.** What about the TGI (HL-60(TB) leukemia) of the same molecule?
**A.** > 25 µM

**Q.** What about the GI50 (SW-620 colon) of the same molecule?
**A.** > 25 µM

**Q.** What about the TGI (SW-620 colon) of the same molecule?
**A.** > 25 µM

**Q.** And the GI50 (LOX IMVI melanoma)?
**A.** > 25 µM

**Q.** What about the TGI (LOX IMVI melanoma) of the same molecule?
**A.** > 25 µM
